Test results published in ChEMBL document CHEMBL4229562, “Introduction of a Methyl Group Curbs Metabolism of Pyrido[3,4- d]pyrimidine Monopolar Spindle 1 (MPS1) Inhibitors and Enables the Discovery of the Phase 1 Clinical Candidate N2-(2-Ethoxy-4-(4-methyl-4 H-1,2,4-triazol-3-yl)phenyl)-6-methyl- N8-neopentylpyrido[3,4- d]pyrimidine-2,8-diamine …” (J Med Chem, 2018).
Converted amounts (≈) assume the structure as drawn.

Key:
[1] = Cmax in mouse at 5 mg/kg, po by ESI-LCMS/MS analysis; format: ADME, organism-based; design: dose 5 mg/kg, route oral; conditions: in vivo
[2] = Clearance in mouse at 5 mg/kg, iv by ESI-LCMS/MS analysis; format: ADME, organism-based; conditions: in vivo
Rattus norvegicus [3] = experiment: Oral bioavailability in rat at 5 mg/kg by ESI-LCMS/MS analysis; format: ADME, organism-based; conditions: in vivo
[4] = Lipophilicity, log P of the compound; format: physicochemical; conditions: octanol/water
CDK2/Cyclin A2 = CDK2/Cyclin A2 (Homo sapiens, UniProt P24941)
[5] = molecular target: Mitogen-activated protein kinase 10 (Homo sapiens, UniProt P53779); experiment: Inhibition of recombinant human full length N-terminal GST-tagged JNK3 expressed in baculovirus expression system by Z'-LYTE assay
Mus musculus [6] = experiment: Oral bioavailability in mouse at 5 mg/kg by ESI-LCMS/MS analysis; format: ADME, organism-based; conditions: in vivo
[7] = Volume of distribution at steady state in mouse at 5 mg/kg, iv by ESI-LCMS/MS analysis; format: ADME, organism-based; conditions: in vivo, read-out: Vdss
[8] = Cmax in rat at 5 mg/kg, po by ESI-LCMS/MS analysis; format: ADME, organism-based; design: dose 5 mg/kg, route oral; conditions: in vivo
[9] = AUClast in rat at 5 mg/kg, po measured after 24 hrs by ESI-LCMS/MS analysis; format: ADME, organism-based; conditions: in vivo
[10] = molecular target: T1, Dual specificity protein kinase TTK (Homo sapiens, UniProt P33981)
T1 sequence (P33981 whole entry): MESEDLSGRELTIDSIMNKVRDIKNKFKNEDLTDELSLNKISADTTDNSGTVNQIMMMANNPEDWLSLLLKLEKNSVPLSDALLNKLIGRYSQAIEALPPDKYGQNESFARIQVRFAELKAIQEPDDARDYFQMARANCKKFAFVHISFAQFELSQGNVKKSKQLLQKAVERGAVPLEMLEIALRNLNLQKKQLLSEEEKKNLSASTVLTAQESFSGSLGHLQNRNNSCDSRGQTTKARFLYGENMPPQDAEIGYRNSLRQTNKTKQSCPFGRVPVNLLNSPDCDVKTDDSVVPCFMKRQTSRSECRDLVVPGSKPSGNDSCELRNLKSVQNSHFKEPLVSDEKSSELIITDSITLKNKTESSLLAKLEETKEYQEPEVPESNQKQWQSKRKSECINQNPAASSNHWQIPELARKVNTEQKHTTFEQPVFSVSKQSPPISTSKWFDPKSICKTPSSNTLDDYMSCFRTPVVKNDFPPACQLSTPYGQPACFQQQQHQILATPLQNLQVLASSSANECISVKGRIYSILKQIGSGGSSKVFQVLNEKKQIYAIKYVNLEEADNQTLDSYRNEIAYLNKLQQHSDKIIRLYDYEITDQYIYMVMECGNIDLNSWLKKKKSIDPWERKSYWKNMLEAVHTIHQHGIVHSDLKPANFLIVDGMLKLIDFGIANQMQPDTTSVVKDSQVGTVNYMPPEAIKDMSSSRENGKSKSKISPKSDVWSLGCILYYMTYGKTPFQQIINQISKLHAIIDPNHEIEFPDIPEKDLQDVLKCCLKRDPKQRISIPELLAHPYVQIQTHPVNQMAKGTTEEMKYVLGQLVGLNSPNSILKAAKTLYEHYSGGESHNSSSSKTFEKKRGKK
Description: Inhibition of full length human N-terminal 6xHis-tagged MPS1 expressed in baculovirus expression system using 5FAM-H236 peptide as substrate after 60 to 90 mins by caliper assay

[11] = Solubility of the compound in PBS buffer at pH 7.4 by HPLC analysis; format: physicochemical
[12] = molecular target: Leucine-rich repeat serine/threonine-protein kinase 2 (Homo sapiens, UniProt Q5S007); experiment: Inhibition of recombinant human GST-tagged LRRK2 (970 to 2527 residues) expressed in baculovirus expression system by Z'-LYTE assay
[13] = Clearance in rat at 2.5 mg/kg, iv by ESI-LCMS/MS analysis; format: ADME, organism-based; conditions: in vivo
[14] = molecular target: Mitogen-activated protein kinase 9 (Homo sapiens, UniProt P45984); experiment: Inhibition of recombinant human full length His-tagged JNK2 expressed in baculovirus expression system by Z'-LYTE assay
Rattus norvegicus [15] = experiment: Half life in rat at 2.5 mg/kg, iv by ESI-LCMS/MS analysis; format: ADME, organism-based; conditions: in vivo
[16] = AUClast in mouse at 5 mg/kg, po measured after 6 hrs by ESI-LCMS/MS analysis; format: ADME, organism-based; conditions: in vivo
[17] = Intrinsic clearance in CD1 mouse liver microsomes assessed per mg protein at 1 uM preincubated for 10 mins followed NADPH/UDP-glucuronic acid addition and measured after 30 mins by LC-MS/MS analysis; format: ADME, microsome; conditions: 0.5 h
[18] = molecular target: T1, Dual specificity protein kinase TTK; remark: listed apart in the source
Description: Inhibition of MPS1 autophosphorylation at Thr33/Ser37 in human HCT116 cells after 2 hrs by MSD assay

[19] = Volume of distribution at steady state in rat at 2.5 mg/kg, iv by ESI-LCMS/MS analysis; format: ADME, organism-based; conditions: in vivo, read-out: Vdss
[20] = Intrinsic clearance in human liver microsomes assessed per mg protein at 1 uM preincubated for 10 mins followed NADPH/UDP-glucuronic acid addition and measured after 30 mins by LC-MS/MS analysis; format: ADME, microsome; conditions: 0.5 h
Mus musculus [21] = experiment: Half life in mouse at 5 mg/kg, iv by ESI-LCMS/MS analysis; format: ADME, organism-based; conditions: in vivo
[22] = Protein binding in mouse plasma; format: ADME, cell-free
[23] = molecular target: Mitogen-activated protein kinase 8 (Homo sapiens, UniProt P45983); experiment: Inhibition of recombinant human full length His-tagged JNK1 expressed in baculovirus expression system by Z'-LYTE assay
[24] = Dissociation constant, pKa of the compound; format: physicochemical

Leucine-rich repeat serine/threonine-protein kinase 2, sequence (Q5S007 whole entry, the tested form may be a part): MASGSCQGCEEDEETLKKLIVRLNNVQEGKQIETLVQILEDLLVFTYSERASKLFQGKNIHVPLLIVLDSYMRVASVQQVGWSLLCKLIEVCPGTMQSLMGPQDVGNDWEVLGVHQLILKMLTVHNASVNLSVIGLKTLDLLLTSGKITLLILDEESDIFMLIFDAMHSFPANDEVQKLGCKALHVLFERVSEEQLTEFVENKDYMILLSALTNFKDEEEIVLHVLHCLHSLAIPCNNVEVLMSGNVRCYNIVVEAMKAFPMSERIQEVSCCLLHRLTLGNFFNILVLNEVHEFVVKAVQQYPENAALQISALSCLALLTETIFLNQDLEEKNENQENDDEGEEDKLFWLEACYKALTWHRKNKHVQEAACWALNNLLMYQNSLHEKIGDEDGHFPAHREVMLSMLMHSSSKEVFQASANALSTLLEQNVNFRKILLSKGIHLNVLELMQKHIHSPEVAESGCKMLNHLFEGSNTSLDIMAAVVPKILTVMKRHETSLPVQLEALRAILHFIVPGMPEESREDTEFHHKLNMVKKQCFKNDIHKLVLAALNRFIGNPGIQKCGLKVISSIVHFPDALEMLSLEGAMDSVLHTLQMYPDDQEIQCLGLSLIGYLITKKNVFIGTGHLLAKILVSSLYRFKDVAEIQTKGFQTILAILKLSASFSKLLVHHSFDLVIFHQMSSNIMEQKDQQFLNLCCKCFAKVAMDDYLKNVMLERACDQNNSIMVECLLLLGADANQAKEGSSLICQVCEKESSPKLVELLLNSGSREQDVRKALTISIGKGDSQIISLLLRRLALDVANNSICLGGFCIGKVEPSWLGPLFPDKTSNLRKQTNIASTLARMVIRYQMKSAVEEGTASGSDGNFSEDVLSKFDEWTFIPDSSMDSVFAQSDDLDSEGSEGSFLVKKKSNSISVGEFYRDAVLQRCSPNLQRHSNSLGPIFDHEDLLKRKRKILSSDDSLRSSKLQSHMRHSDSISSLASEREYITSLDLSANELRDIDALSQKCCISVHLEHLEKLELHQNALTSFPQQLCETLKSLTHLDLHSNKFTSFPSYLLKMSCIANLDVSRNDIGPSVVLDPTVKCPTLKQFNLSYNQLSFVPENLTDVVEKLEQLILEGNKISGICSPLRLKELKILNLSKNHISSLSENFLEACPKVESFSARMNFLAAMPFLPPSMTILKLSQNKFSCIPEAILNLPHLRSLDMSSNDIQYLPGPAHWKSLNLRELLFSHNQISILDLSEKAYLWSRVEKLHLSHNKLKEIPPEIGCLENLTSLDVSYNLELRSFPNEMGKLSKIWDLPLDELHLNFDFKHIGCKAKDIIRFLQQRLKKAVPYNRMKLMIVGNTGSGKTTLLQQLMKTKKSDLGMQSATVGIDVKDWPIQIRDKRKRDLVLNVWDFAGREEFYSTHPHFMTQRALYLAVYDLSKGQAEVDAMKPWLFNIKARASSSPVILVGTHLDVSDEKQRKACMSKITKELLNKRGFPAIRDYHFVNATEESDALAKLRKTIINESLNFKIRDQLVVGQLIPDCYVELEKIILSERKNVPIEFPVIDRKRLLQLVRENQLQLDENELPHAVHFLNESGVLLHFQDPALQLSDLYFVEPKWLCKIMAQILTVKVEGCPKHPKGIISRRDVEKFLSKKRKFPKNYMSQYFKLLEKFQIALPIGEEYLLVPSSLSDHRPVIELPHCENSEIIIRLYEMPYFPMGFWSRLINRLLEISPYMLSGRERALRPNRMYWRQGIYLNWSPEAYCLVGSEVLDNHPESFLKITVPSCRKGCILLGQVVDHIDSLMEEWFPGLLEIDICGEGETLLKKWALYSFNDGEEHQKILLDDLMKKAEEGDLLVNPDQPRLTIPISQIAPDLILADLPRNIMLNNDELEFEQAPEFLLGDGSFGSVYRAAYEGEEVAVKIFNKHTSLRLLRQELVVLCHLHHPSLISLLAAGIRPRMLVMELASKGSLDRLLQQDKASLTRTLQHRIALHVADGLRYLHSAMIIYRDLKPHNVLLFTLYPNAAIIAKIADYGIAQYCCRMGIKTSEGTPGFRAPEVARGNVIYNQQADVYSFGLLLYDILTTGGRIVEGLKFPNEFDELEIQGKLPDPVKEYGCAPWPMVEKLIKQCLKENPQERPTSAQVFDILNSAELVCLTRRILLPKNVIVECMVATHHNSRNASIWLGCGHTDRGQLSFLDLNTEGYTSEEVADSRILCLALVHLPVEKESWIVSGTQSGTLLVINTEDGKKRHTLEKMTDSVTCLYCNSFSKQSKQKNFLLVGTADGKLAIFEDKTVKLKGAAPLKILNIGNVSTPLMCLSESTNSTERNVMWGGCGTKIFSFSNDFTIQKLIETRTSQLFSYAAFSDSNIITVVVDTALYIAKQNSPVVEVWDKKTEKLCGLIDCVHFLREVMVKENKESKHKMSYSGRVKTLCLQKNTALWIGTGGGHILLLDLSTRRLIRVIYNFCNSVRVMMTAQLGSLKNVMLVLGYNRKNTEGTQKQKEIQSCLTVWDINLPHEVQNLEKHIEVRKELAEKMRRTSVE
Mitogen-activated protein kinase 9, sequence (P45984 whole entry): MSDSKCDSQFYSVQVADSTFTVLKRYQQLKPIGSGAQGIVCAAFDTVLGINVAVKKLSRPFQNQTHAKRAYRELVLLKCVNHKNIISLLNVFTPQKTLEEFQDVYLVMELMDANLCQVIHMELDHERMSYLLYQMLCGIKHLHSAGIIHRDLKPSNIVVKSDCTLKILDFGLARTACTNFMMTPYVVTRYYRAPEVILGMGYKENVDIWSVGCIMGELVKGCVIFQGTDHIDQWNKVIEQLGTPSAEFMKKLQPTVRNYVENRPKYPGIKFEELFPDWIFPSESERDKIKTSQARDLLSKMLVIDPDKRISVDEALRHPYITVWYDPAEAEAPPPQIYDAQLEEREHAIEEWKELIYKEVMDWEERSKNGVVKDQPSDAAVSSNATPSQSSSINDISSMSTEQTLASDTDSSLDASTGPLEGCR
Mitogen-activated protein kinase 10, sequence (P53779 whole entry): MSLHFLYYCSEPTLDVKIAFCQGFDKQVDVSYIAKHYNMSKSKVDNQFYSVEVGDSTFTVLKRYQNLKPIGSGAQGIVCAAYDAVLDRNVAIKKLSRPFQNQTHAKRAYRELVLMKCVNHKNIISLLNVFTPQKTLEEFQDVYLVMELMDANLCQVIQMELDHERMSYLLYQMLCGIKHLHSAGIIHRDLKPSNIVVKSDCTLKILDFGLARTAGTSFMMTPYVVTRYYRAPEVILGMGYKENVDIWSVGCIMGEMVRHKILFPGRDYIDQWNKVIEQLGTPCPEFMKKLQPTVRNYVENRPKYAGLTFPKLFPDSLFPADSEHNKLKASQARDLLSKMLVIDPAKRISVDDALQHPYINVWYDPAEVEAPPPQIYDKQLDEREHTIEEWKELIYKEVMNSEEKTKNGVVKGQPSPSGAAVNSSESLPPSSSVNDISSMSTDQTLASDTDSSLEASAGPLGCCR
Mitogen-activated protein kinase 8, sequence (P45983 whole entry): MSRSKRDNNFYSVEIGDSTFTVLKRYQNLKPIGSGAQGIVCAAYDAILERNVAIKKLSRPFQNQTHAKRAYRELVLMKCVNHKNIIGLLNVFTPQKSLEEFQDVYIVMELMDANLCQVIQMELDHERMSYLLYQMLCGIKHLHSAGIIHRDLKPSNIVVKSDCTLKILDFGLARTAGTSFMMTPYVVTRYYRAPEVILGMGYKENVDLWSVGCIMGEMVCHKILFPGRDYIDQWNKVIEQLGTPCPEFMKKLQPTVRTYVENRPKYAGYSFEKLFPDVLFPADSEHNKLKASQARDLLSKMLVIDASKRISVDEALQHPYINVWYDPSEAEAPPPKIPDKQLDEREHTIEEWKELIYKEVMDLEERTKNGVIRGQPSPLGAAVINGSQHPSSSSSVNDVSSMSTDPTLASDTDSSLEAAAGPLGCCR

- Cmax [1]: 2760 nM
- clearance [2]: 10.9 mL/min/kg
- F (Rattus norvegicus [3]): 63%
- logP [4]: 4.23
- IC50 (CDK2/Cyclin A2): 1020 nM
- Ki (CDK2/Cyclin A2): 510 nM
- IC50 [5]: 242 nM
- F (Mus musculus [6]): 81%
- Vd [7]: 2.46 L/kg
- Cmax [8]: 813 nM
- AUC(0-t) at 24 h [9]: 11.3 µM·h
- IC50 [10]: 11 nM
- Ki [10]: 0.11 nM
- solubility [11]: 6.6 µM (≈ 2.95 µg/mL)
- IC50 [12]: 48 nM
- clearance [13]: 10.1 mL/min/kg
- IC50 [14]: 76 nM
- t1/2 (Rattus norvegicus [15]): 4.66 h
- AUC(0-t) at 6 h [16]: 11 µM·h
- CLH [17]: 26.3 µL/min/mg
- IC50 [18]: 63 nM
- Vd [19]: 3.52 L/kg
- CLH [20]: 8 µL/min/mg
- t1/2 (Mus musculus [21]): 2.68 h
- PPB [22]: 99.85%
- IC50 [23]: 92 nM
- pKa [24]: 2.63 to 6.22
SMILES: CCOc1cc(-c2nncn2C)ccc1Nc1ncc2cc(C)nc(NCC(C)(C)C)c2n1 [BOS-172722]
